Here are results for three compounds from US20170340636A1, “COMPOSITIONS AND METHODS FOR INHIBITION OF AUTOPHAGY” (Board of Regents, The University of Texas System, priority 2016, published 2017).

One may read the IC50 as the concentration at which inhibition is half-maximal.

The target in assay [1] is T1, TAOK2 (Rattus norvegicus, UniProt Q9JLS3).
T1 construct: made in house
T1 sequence (Q9JLS3 1-320 limits assumed): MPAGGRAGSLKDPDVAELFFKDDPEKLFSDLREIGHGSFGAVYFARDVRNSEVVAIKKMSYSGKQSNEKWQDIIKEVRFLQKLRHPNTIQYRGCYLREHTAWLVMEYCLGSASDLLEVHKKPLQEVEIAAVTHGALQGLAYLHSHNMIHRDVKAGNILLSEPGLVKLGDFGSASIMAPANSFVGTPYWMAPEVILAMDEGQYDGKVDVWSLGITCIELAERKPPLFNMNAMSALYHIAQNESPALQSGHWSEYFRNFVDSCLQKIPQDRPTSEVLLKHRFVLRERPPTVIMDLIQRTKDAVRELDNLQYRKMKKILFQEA
The experiment in a line: Kinase-Glo high-throughput screen / re-screen of TAOK2 activity (MBP substrate). The conditions noted are these: estimate from HTS re-screen at 1, 3.3 and 10 μM. In kind it is biochemical. As for the experimental part: TAOK2 activity was screened in a high-throughput fashion using Kinase-Glo (Promega). A 20 μL, solution of 50 mM HEPES pH 7.4, 50 mM MgCl2, 1.27 mg/ml MBP and 0.005 mg/ml TAOK2 was added to each well of a 384 well Corning plate using a Biotek MultiFlo dispenser. 0.2 μl of compound (columns 3 to 22, 50 μM), DMSO negative control (columns 2, 23, and 24), or staurosporine positive control (column 1, 43.4 μM) were then added to each well with a Biomek Liquid handler. 10 μl of 50 μg/ml ATP solution was added to each well with a Labsystems Multidrop384. The plates were incubated at RT for 100 minutes. 20 μl Kinase Glo (Promega) was added to each well, and allowed to incubate for 10minutes under agitation. Luminescence was read on an Envision Multilabel plate reader.
After cherry picking primary hits, the selected compounds were assayed in a limited dose-response format (10, 3.3, and 1 μM) in triplicate using the primary enzymatic assay for TAOK2. The data for each assay well was normalized to the neutral controls. The normalized activity values (replicates) for each compound in each assay were then condensed to a single value (condensed activity) using the “Robust Condensing” method in Genedata Screener®. The condensed activity is the most representative single value of the triplicates. In general, the triplicates were pre-condensed into a pair of values as follows:
In order to study the relationship between TAOK2 and both cancer and autophagy, a high-throughput screen was performed using a 200,000 compound library to discover novel small-molecule kinase inhibitors (FIG. 1A-D). Phosphorylation reactions were performed in a 384 well format against the generic kinase substrate Myelin Basic Protein (MBP) with the addition of compound. Kinase-Glo (Promega) was then added to each well to detect remaining ATP concentration. Thus, inhibitory compounds would decrease TAOK2 activity, which would increase both remaining ATP concentration and luminescence in those wells.
After the initial screen, 1645 compounds were identified with inhibition greater than three σ above the mean DMSO control (FIG. 1A). The Z′ factor of the initial screen across all plates was 0.77, indicating high significance (FIG. 1B). These compounds were then re-screened in triplicate under the same conditions, with the compounds being assayed at three concentrations (1 μM, 3.3 μM, and 10 μM, FIG. 1C, D). 432 compounds were identified after the re-screen with average inhibitions greater than 10 sigma at the 10 μM concentration. The Z′ factor of the confirmation screen was 0.52, again indicating high significance.

The target in assay [2] is T1, TAOK2. Kind of assay: Radiometric kinase assay. In kind it is biochemical. The conditions noted are these: determined radiometrically; MBP, γ-labeled ATP. On the procedure: Radiometric activity assays of selected compounds against TAOK2 were conducted. A reaction solution of 0.02 mg/ml TAOK2, 50 mM MgCl2, 50 mM HEPES pH 7.5, 1 mg/ml MBP, and increasing compound concentration was made. The compound/DMSO solution was 5% by volume in the final reaction mixture. An ATP solution of 1:20 0.1 μCi/ml 32P -labeled ATP:1 mg/ml ATP was made. 10 μl of ATP solution was added to 50 μl of reaction solution, and allowed to react for 30 minutes. Reactions were stopped by blotting onto filter paper, then submerging in10% trifluoroacetic acid (TFA). Samples were washed 4 times in TFA, then put into scintillation vials. 5 ml Complete Counting Cocktail 3a70B (Research Products International Corp.) was added, and the vials were counted on a Beckman scintillation counter for 10 minutes.
Compounds SW034538 and SW083688 were both selective in the DSF measurements and effective in the GFP-LC3 degradation assays. These compounds were then chosen for radiometric analysis to determine their IC50 values (Table 1). TAOK2 was incubated with inhibitor, MBP, and γ-labeled ATP and allowed to react for 10 minutes. The concentrations of MBP and ATP were chosen such that the reaction was kept in the linear range for the duration of the experiment. […] IC50 value estimates were calculated from the results of the 200 k rescreen described above. […]

For the compound `CS(=O)(=O)c1ccc2nc(NC(=O)CCCOc3ccc(Cl)cc3)sc2c1` [SW172006], the IC50 in assay [1] was 5000 nM.
`CCOCCCn1c(=S)[nH]c2cc(C(=O)NCC3COc4ccccc4O3)ccc2c1=O` (stereo not drawn) [SW083688] registered an IC50 in assay [2] of 1300 nM.
On the same count and under the same terms, to `CCC(=O)Nc1nc(C)c(-c2csc(Nc3cc(OC)ccc3OC)n2)s1` [SW034538] belongs 300 nM.
